Source: paper PMC9501810, “Bitter Peptides YFYPEL, [sequence], and [sequence], Released during Gastric Digestion of Casein, Stimulate Mechanisms of Gastric Acid Secretion via Bitter Taste Receptors TAS2R16 and TAS2R38” (Journal of Agricultural and Food Chemistry, 2022)
Several values for one entry are separate records, joined by “and”; a condition that tells them apart may be missing. Equal entries are not always repeated.

Columns and labels:
Format in all cases: cell-based, human
[1] = system: TAS2R1; assay: RT-qPCR gene expression of TAS2R1 in HGT-1 cells; conditions: VAPFPEVF 17.5 µM, YFYPEL 0.03 µM, YQEPVLGPVRGPFPIIV 0.4 µM, normalized to PPIA and GAPDH and untreated cells, mean, n = 3–5
Protocol: (§1) For mRNA expression analysis, 800,000 cells were seeded in a T25 cell culture flask (25 cm^2) 1 day before the experiment. After incubation with 17.5 μM […], 0.03 μM YFYPEL, or 0.4 μM […] for 15, 30, 60, and 120 min, RNA was isolated using the peqGOLD RNA Kit (VWR Peqlab, USA) following the manufacturer’s protocol. Determination of RNA concentration (A260/A280 between 2.03 and 2.09) was performed on a NanoDrop One^c (Thermo Fisher Scientific Inc., USA). RNA integrity number (RIN 9.9–10.0, version 2.6, assay class Eukaryote Total RNA Nano) was analyzed using a 2100 Bioanalyzer (Agilent Technologies, USA). Removal of gDNA and synthesis of cDNA were performed using the iScript gDNA Clear cDNA Synthesis Kit (BioRad, Feldkirchen, Germany) following the manufacturer’s protocol. Real-time-qPCR (RT-qPCR) was performed with 50 ng cDNA amplified with SsoAdvanced Universal SYBR Green Supermix (Bio-Rad Laboratories, Inc., USA). The sequences of the forward and reverse primers of the 25 TAS2Rs were taken from Liszt et al.([13]) (Supporting Information Table-SI 3). Verified primers for the TAS1Rs (TAS1R1: qHsaCID0013443; TAS1R2: qHsaCID0016106; TAS1R3: qHsaCED0002321) and for MAPK1 (qHsaCEP0050000) were obtained from Bio-Rad Laboratories. PPIA[37] and GAPDH[38] were used as reference genes. The effects of the peptides on gene expression were analyzed in comparison to untreated control cells.

[2] = system: TAS2R30; assay: RT-qPCR gene expression of TAS2R30 in HGT-1 cells; conditions: VAPFPEVF 17.5 µM, YFYPEL 0.03 µM, YQEPVLGPVRGPFPIIV 0.4 µM, normalized to PPIA and GAPDH and untreated cells, mean, n = 3–5
Protocol: as §1

[3] = system: TAS2R10; assay: RT-qPCR gene expression of TAS2R10 in HGT-1 cells; conditions: VAPFPEVF 17.5 µM, YFYPEL 0.03 µM, YQEPVLGPVRGPFPIIV 0.4 µM, normalized to PPIA and GAPDH and untreated cells, mean, n = 3–5
Protocol: as §1

[4] = system: TAS2R5; assay: RT-qPCR gene expression of TAS2R5 in HGT-1 cells; conditions: VAPFPEVF 17.5 µM, YFYPEL 0.03 µM, YQEPVLGPVRGPFPIIV 0.4 µM, normalized to PPIA and GAPDH and untreated cells, mean, n = 3–5
Protocol: as §1

[5] = system: TAS2R60; assay: RT-qPCR gene expression of TAS2R60 in HGT-1 cells; conditions: incubation 15/30/60/120 min, VAPFPEVF 17.5 µM, YFYPEL 0.03 µM, YQEPVLGPVRGPFPIIV 0.4 µM, expression not detectable with or without treatment
Protocol: as §1

[6] = system: TAS2R38; assay: RT-qPCR gene expression of TAS2R38 in HGT-1 cells; conditions: VAPFPEVF 17.5 µM, YFYPEL 0.03 µM, YQEPVLGPVRGPFPIIV 0.4 µM, normalized to PPIA and GAPDH and untreated cells, mean, n = 3–5
Protocol: as §1, with “cells. […]” for “cells.”

[7] = system: TAS2R14; assay: RT-qPCR gene expression of TAS2R14 in HGT-1 cells; conditions: VAPFPEVF 17.5 µM, YFYPEL 0.03 µM, YQEPVLGPVRGPFPIIV 0.4 µM, normalized to PPIA and GAPDH and untreated cells, mean, n = 3–5
Protocol: as §1

[8] = system: TAS2R13; assay: RT-qPCR gene expression of TAS2R13 in HGT-1 cells; conditions: VAPFPEVF 17.5 µM, YFYPEL 0.03 µM, YQEPVLGPVRGPFPIIV 0.4 µM, normalized to PPIA and GAPDH and untreated cells, mean, n = 3–5
Protocol: as §1

[9] = system: TAS2R46; assay: RT-qPCR gene expression of TAS2R46 in HGT-1 cells; conditions: VAPFPEVF 17.5 µM, YFYPEL 0.03 µM, YQEPVLGPVRGPFPIIV 0.4 µM, normalized to PPIA and GAPDH and untreated cells, mean, n = 3–5
Protocol: as §1

[10] = system: TAS2R4; assay: RT-qPCR gene expression of TAS2R4 in HGT-1 cells; conditions: VAPFPEVF 17.5 µM, YFYPEL 0.03 µM, YQEPVLGPVRGPFPIIV 0.4 µM, normalized to PPIA and GAPDH and untreated cells, mean, n = 3–5
Protocol: as §1

[11] = system: TAS1R1; assay: RT-qPCR gene expression of TAS1R1 in HGT-1 cells; conditions: 15/30/60/120 min, VAPFPEVF 17.5 µM, YQEPVLGPVRGPFPIIV 0.4 µM, n = 3
Protocol: as §1

[12] = system: TAS2R31; assay: RT-qPCR gene expression of TAS2R31 in HGT-1 cells; conditions: VAPFPEVF 17.5 µM, YFYPEL 0.03 µM, YQEPVLGPVRGPFPIIV 0.4 µM, normalized to PPIA and GAPDH and untreated cells, mean, n = 3–5
Protocol: as §1

[13] = system: TAS2R19; assay: RT-qPCR gene expression of TAS2R19 in HGT-1 cells; conditions: VAPFPEVF 17.5 µM, YFYPEL 0.03 µM, YQEPVLGPVRGPFPIIV 0.4 µM, normalized to PPIA and GAPDH and untreated cells, mean, n = 3–5
Protocol: as §1

[14] = system: TAS2R9; assay: RT-qPCR gene expression of TAS2R9 in HGT-1 cells; conditions: VAPFPEVF 17.5 µM, YFYPEL 0.03 µM, YQEPVLGPVRGPFPIIV 0.4 µM, normalized to PPIA and GAPDH and untreated cells, mean, n = 3–5
Protocol: as §1

[15] = system: TAS2R42; assay: RT-qPCR gene expression of TAS2R42 in HGT-1 cells; conditions: VAPFPEVF 17.5 µM, YFYPEL 0.03 µM, YQEPVLGPVRGPFPIIV 0.4 µM, normalized to PPIA and GAPDH and untreated cells, mean, n = 3–5
Protocol: as §1

VAPFPEVF [bitter casein peptide αS1-CN25–32]
change in gene expression of TAS2R1 ([1]; incubation 15 min): 0.79 fold change | change in gene expression of TAS2R1 ([1]; incubation 30 min): 1.36 fold change | change in gene expression of TAS2R1 ([1]; incubation 60 min): 0.44 fold change | change in gene expression of TAS2R1 ([1]; incubation 120 min): 1.62 fold change | change in gene expression of TAS2R30 ([2]; incubation 15 min): 0.56 fold change | change in gene expression of TAS2R30 ([2]; incubation 30 min): 1.53 fold change | change in gene expression of TAS2R30 ([2]; incubation 60 min): 0.75 fold change | change in gene expression of TAS2R30 ([2]; incubation 120 min): 1.62 fold change | change in gene expression of TAS2R10 ([3]; incubation 15 min): 0.34 fold change and 0.34 ± 0.05 fold change | change in gene expression of TAS2R10 ([3]; incubation 30 min): 0.76 fold change | change in gene expression of TAS2R10 ([3]; incubation 60 min): 0.91 fold change | change in gene expression of TAS2R10 ([3]; incubation 120 min): 1.15 fold change | change in gene expression of TAS2R5 ([4]; incubation 15 min): 0.91 fold change | change in gene expression of TAS2R5 ([4]; incubation 30 min): 1.05 fold change | change in gene expression of TAS2R5 ([4]; incubation 60 min): 0.93 fold change | change in gene expression of TAS2R5 ([4]; incubation 120 min): 1.23 fold change | change in gene expression of TAS2R60 [5]: not detected | change in gene expression of TAS2R38 ([6]; incubation 15 min): 1.31 fold change | change in gene expression of TAS2R38 ([6]; incubation 30 min): 2.42 fold change and 2.42 ± 0.55 fold change | change in gene expression of TAS2R38 ([6]; incubation 60 min): 1.15 fold change | change in gene expression of TAS2R38 ([6]; incubation 120 min): 2.45 fold change and 2.45 ± 0.26 fold change | change in gene expression of TAS2R14 ([7]; incubation 15 min): 0.67 fold change | change in gene expression of TAS2R14 ([7]; incubation 30 min): 0.97 fold change | change in gene expression of TAS2R14 ([7]; incubation 60 min): 0.86 fold change | change in gene expression of TAS2R14 ([7]; incubation 120 min): 1.08 fold change | change in gene expression of TAS2R13 ([8]; incubation 15 min): 0.44 fold change | change in gene expression of TAS2R13 ([8]; incubation 30 min): 1.28 fold change | change in gene expression of TAS2R13 ([8]; incubation 60 min): 1.01 fold change | change in gene expression of TAS2R13 ([8]; incubation 120 min): 1.92 fold change | change in gene expression of TAS2R46 ([9]; incubation 15 min): 0.62 fold change | change in gene expression of TAS2R46 ([9]; incubation 30 min): 1.47 fold change | change in gene expression of TAS2R46 ([9]; incubation 60 min): 0.85 fold change | change in gene expression of TAS2R46 ([9]; incubation 120 min): 1.95 fold change | change in gene expression of TAS2R4 ([10]; incubation 15 min): 0.50 fold change | change in gene expression of TAS2R4 ([10]; incubation 30 min): 1.14 fold change | change in gene expression of TAS2R4 ([10]; incubation 60 min): 0.95 fold change | change in gene expression of TAS2R4 ([10]; incubation 120 min): 1.42 fold change | change in expression of TAS1R1 [11]: no significant effect | change in gene expression of TAS2R31 ([12]; incubation 15 min): 0.66 fold change | change in gene expression of TAS2R31 ([12]; incubation 30 min): 1.14 fold change | change in gene expression of TAS2R31 ([12]; incubation 60 min): 0.70 fold change | change in gene expression of TAS2R31 ([12]; incubation 120 min): 1.22 fold change | change in gene expression of TAS2R19 ([13]; incubation 15 min): 0.66 fold change | change in gene expression of TAS2R19 ([13]; incubation 30 min): 1.22 fold change | change in gene expression of TAS2R19 ([13]; incubation 60 min): 0.69 fold change | change in gene expression of TAS2R19 ([13]; incubation 120 min): 1.25 fold change | change in gene expression of TAS2R9 ([14]; incubation 15 min): 1.73 fold change | change in gene expression of TAS2R9 ([14]; incubation 30 min): 1.08 fold change | change in gene expression of TAS2R9 ([14]; incubation 60 min): 2.31 fold change | change in gene expression of TAS2R9 ([14]; incubation 120 min): 0.99 fold change | change in gene expression of TAS2R42 ([15]; incubation 15 min): 0.52 fold change | change in gene expression of TAS2R42 ([15]; incubation 30 min): 0.88 fold change | change in gene expression of TAS2R42 ([15]; incubation 60 min): 0.71 fold change | change in gene expression of TAS2R42 ([15]; incubation 120 min): 1.20 fold change
